For orientation: IC50 means the concentration that gives 50% inhibition. Higher therefore signals lower potency. The inhibition is the change of the read-out against control, counted positive when it falls.

Where only a bound is given, the exact number is not on record here.

Data on eight compounds can be found in US20250368649A1, “TETRAHYDROPYRIDOPYRIMIDINE PAN-KRAS INHIBITORS” (Mirati Therapeutics, Inc., priority 2022, published 2025).

The subject of one test is ASPC1 cells. Nature of the test: Inhibition of KRas-mediated phosphorylation of ERK (Cisbio HTRF pERK), ASPC1 cells. The class given is cell-based. To be noted: Homo sapiens, AsPC-1 cells; for IC50: ASPC1, 3 h, 3 hr compound incubation, Cisbio pERK HTRF. Background: In TR-FRET formats the signal depends on donor and acceptor labels being close together.
The test system of the next test is MKN1 cells. The test is described as follows: Inhibition of KRas-mediated phosphorylation of ERK (Cisbio HTRF pERK), MKN1 cells. Format: cell-based. The following applies: Homo sapiens, MKN-1, 3 hour compound incubation, Cisbio pERK HTRF. The method, then:
(§1) Inhibition of KRas Phosphorylation of ERK (HTRF) by Exemplary Compounds of Formula (I) Cisbio HTRF Advanced pERK Assay Catalog #64AERPEH • Cells: MKN1, PSN1 • Procedure: • Day 1: Seed 6,000 cells/well -25 µl/well in 384-well white solid bottom plate; RPM1_10% FBS.

For another test, the system named is H727 cells. The test is described as follows: Inhibition of KRas-mediated phosphorylation of ERK (Cisbio HTRF pERK), H727 cells. Format: cell-based. The following applies: Homo sapiens; for IC50: NCI-H727, 3 h, 3 hr compound incubation, Cisbio pERK HTRF.
The next test has as its target KRas G12V (Homo sapiens, UniProt P01116, G12V). Nature of the test: biochemical. The following applies: Binding to KRas (IC50 nM) G12V, TR-FRET displacement, KRas G12V.
The target of a further test is KRas G12D (Homo sapiens, UniProt P01116, G12D). Nature of the test: biochemical. To be noted: Binding to KRas (IC50 nM) G12D, TR-FRET displacement, KRas G12D.
KRas G12D, sequence (P01116 1-169 isoform P01116-2 G12D): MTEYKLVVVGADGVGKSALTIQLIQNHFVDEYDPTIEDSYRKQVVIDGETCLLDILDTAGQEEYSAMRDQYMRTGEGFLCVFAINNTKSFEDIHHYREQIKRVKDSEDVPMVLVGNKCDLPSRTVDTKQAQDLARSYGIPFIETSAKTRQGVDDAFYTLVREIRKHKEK
The test system of another test is PSN1 cells. The test is described as follows: Inhibition of KRas-mediated phosphorylation of ERK (Cisbio HTRF pERK), PSN1 cells. The class given is cell-based. To be noted: Homo sapiens, PSN1, 3 h, 3 hour compound incubation, Cisbio pERK HTRF. Here is the method: as §1
Another test deals with HCT116 cells. The test is described as follows: Inhibition of KRas-mediated phosphorylation of ERK (Cisbio HTRF pERK), HCT116 cells. Format: cell-based. To be noted: Homo sapiens; for inhibition at 0.1 µM: HCT-116, single point at 100 nM, 3 hrs compound incubation.
The test system of the next test is H460 cells. Nature of the test: Inhibition of KRas-mediated phosphorylation of ERK (Cisbio HTRF pERK), H460 cells. The class given is cell-based. The following applies: Homo sapiens, NCI-H460, single point at 100 nM, 3 hrs compound incubation.
The next test addresses KRas G12R (Homo sapiens, UniProt P01116, G12R). The test is described as follows: biochemical. The following applies: Binding to KRas (IC50 nM) G12R, TR-FRET displacement, KRas G12R.
Another test deals with H358 cells. Nature of the test: Inhibition of KRas-mediated phosphorylation of ERK (Cisbio HTRF pERK), H358 cells. The class given is cell-based. The following applies: Homo sapiens, NCI-H358, single point at 100 nM, 3 hrs compound incubation.
The subject of the next test is A549 cells. The test is described as follows: Inhibition of KRas-mediated phosphorylation of ERK (Cisbio HTRF pERK), A549 cells. Format: cell-based. The following applies: Homo sapiens, single point at 100 nM, 3 hrs compound incubation.

KRas G12R, sequence (P01116 1-169 isoform P01116-2 G12R): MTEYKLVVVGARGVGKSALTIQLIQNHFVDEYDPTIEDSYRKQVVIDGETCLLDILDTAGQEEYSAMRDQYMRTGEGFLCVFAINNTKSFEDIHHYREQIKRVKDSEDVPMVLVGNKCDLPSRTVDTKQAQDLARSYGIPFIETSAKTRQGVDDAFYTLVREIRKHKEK
KRas G12V, sequence (P01116 1-169 isoform P01116-2 G12V): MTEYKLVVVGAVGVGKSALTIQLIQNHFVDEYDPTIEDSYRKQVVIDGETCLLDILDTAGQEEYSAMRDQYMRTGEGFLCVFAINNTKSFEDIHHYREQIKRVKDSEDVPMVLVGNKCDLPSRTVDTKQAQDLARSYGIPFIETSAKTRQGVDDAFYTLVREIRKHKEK

In the case of `CCc1c(F)ccc2cc(O)cc(N3CCc4c(nc(OC[C@@]56CCCN5C[C@H](F)C6)nc4N4CCCn5nc(CNC(=O)N(C)C)cc5C4)C3)c12` [Example 354, 3-((5-(7-(8-ethyl-7-fluoro-3-hydroxynaphthalen-1-yl)-2-(((2R,7aS)-2-fluorohexahydro-1H-pyrrolizin-7a-yl)methoxy)-5,6,7,8-tetrahydropyrido[3,4-d]pyrimidin-4-yl)-5,6,7,8-tetrahydro-4H-pyrazolo[1,5-a][1,4]diazepin-2-yl)methyl)-1,1-dimethylurea], the IC50 is 1060 nM in the test on ASPC1 cells; 814 nM with MKN1 cells; 1220 nM with H727 cells; 4 nM on KRas G12V; 3 nM on KRas G12D; more than 10000 nM with PSN1 cells. For the same compound, the IC50 on KRas G12R came out at 5 nM. The values for the inhibition at 0.1 µM in the test on HCT116 cells and in the test with H460 cells were 11% and 8%, respectively.
`CCc1c(F)ccc2cc(O)cc(N3CCc4c(nc(OC[C@@]56CCCN5C[C@H](F)C6)nc4N4CCCn5nc(N(C)C(C)=O)cc5C4)C3)c12` [Example 355, N-(5-(7-(8-ethyl-7-fluoro-3-hydroxynaphthalen-1-yl)-2-(((2R,7aS)-2-fluorohexahydro-1H-pyrrolizin-7a-yl)methoxy)-5,6,7,8-tetrahydropyrido[3,4-d]pyrimidin-4-yl)-5,6,7,8-tetrahydro-4H-pyrazolo[1,5-a][1_4]diazepin-2-yl)-N-methylacetamide]: the IC50 with ASPC1 cells was 597 nM; with MKN1 cells, 417 nM; in the test on H727 cells it was 562 nM; at KRas G12V, 6 nM; at KRas G12D, 3 nM; with PSN1 cells, more than 10000 nM. Further, the IC50 on KRas G12R was 9 nM. Besides, the inhibition at 0.1 µM in the test on HCT116 cells was -28%; in the test with H460 cells, 18%.
For `CCc1c(F)ccc2cc(O)cc(N3CCc4c(nc(OC[C@@]56CCCN5C[C@H](F)C6)nc4N4CCCc5nc[nH]c5C4)C3)c12` [Example 357, 4-(4-(7,8-dihydroimidazo[4,5-c]azepin-5(3H,4H,6H)-yl)-2-(((2R,7aS)-2-fluorohexahydro-1H-pyrrolizin-7a-yl)methoxy)-5,6-dihydropyrido[3,4-d]pyrimidin-7(8H)-yl)-5-ethyl-6-fluoronaphthalen-2-ol], the IC50 in the test with ASPC1 cells was 4410 nM; in the test on MKN1 cells it was 2600 nM; in the test on H727 cells, 1830 nM; on KRas G12V, 6 nM; on KRas G12D, 11 nM; in the test on PSN1 cells it was more than 10000 nM. For the same compound, the IC50 at KRas G12R was 7 nM. For the same compound, the results for the inhibition at 0.1 µM with HCT116 cells and in the test on H460 cells were -20% and 12%, respectively.
For `CCc1c(F)ccc2cc(O)cc(N3CCc4c(nc(OC[C@@]56CCCN5C[C@H](F)C6)nc4N4CCCc5n[nH]cc5C4)C3)c12` [Example 361, 4-(4-(7,8-dihydropyrazolo[4,3-c]azepin-5(2H,4H,6H)-yl)-2-(((2R,7aS)-2-fluorohexahydro-1H-pyrrolizin-7a-yl)methoxy)-5,6-dihydropyrido[3,4-d]pyrimidin-7(8H)-yl)-5-ethyl-6-fluoronaphthalen-2-ol], the IC50 in the test on ASPC1 cells is 636 nM; in the test with MKN1 cells it was 401 nM; in the test with H727 cells, 466 nM; on KRas G12V it was 6 nM; at KRas G12D, 14 nM; in the test on PSN1 cells, more than 10000 nM. Also, on KRas G12R, the IC50 was determined as 5 nM. The inhibition at 0.1 µM was -11% in the test on HCT116 cells and 1% in the test on H460 cells.
Take `CCc1c(F)ccc2cc(O)cc(N3CCc4c(nc(OC[C@@]56CCCN5C[C@H](F)C6)nc4N4CCCn5nc(NS(C)(=O)=O)cc5C4)C3)c12` [Example 364, N-(5-(7-(8-ethyl-7-fluoro-3-hydroxynaphthalen-1-yl)-2-(((2R,7aS)-2-fluorohexahydro-1H-pyrrolizin-7a-yl)methoxy)-5,6,7,8-tetrahydropyrido[3,4-d]pyrimidin-4-yl)-5,6,7,8-tetrahydro-4H-pyrazolo[1,5-a][1,4]diazepin-2-yl)methanesulfonamide]: the IC50 in the test on ASPC1 cells is 997 nM; in the test with MKN1 cells it was 456 nM; in the test on H727 cells it was 716 nM; at KRas G12V, 3 nM; at KRas G12D, 2 nM; in the test with PSN1 cells, more than 10000 nM. Also, the IC50 at KRas G12R was less than 2 nM. For the same compound, the figures for the inhibition at 0.1 µM with HCT116 cells and in the test with H460 cells were 10% and 13%, respectively.
Take `CCc1c(F)ccc2cc(O)cc(N3CCc4c(nc(OC[C@@]56CCCN5C[C@H](F)C6)nc4N4CCCC(O)(C(N)=O)C4)C3)c12` (stereo partly drawn) [Example 368, 1-(7-(8-ethyl-7-fluoro-3-hydroxynaphthalen-1-yl)-2-(((2R,7aS)-2-fluorohexahydro-1H-pyrrolizin-7a-yl)methoxy)-5,6,7,8-tetrahydropyrido[3,4-d]pyrimidin-4-yl)-3-hydroxypiperidine-3-carboxamide]: the 50% inhibitory concentration (IC50) with ASPC1 cells was determined as 666 nM; in the test on MKN1 cells, 69.1 nM; in the test on H727 cells, 489 nM; at KRas G12V it was 5 nM; on KRas G12D, 10 nM; in the test with PSN1 cells it was 7050 nM. The IC50 on KRas G12R turned out to be 6 nM. For the same compound, the inhibition at 0.1 µM was 1% in the test on HCT116 cells and 31% in the test with H460 cells.
Turning to `CCc1c(F)ccc2cc(O)cc(N3CCc4c(nc(OC[C@@]56CCCN5C[C@H](F)C6)nc4N4CCCn5nc(C(=O)O)cc5C4)C3)c12` [Example 389, 5-(7-(8-ethyl-7-fluoro-3-hydroxynaphthalen-1-yl)-2-(((2R,7aS)-2-fluorohexahydro-1H-pyrrolizin-7a-yl)methoxy)-5,6,7,8-tetrahydropyrido[3,4-d]pyrimidin-4-yl)-5,6,7,8-tetrahydro-4H-pyrazolo[1,5-a][1,4]diazepine-2-carboxylic acid], the IC50 in the test on ASPC1 cells is 492 nM; in the test with MKN1 cells it was 54.8 nM; in the test with H727 cells, 214 nM; on KRas G12V it was less than 2 nM; at KRas G12D it was less than 2 nM; with PSN1 cells it was more than 10000 nM. Further, the IC50 is more than 10000 nM in the test on HCT116 cells (HCT-116, 3 h, 3 hr compound incubation, Cisbio pERK HTRF) and less than 2 nM on KRas G12R. The inhibition at 0.1 µM with H358 cells is 23%; with A549 cells, -36%.
Take `CCCCN(C)C(=O)c1cc2n(n1)CCCN(c1nc(OC[C@@]34CCCN3C[C@H](F)C4)nc3c1CCN(c1cc(O)cc4ccc(F)c(CC)c14)C3)C2` [Example 496, N-butyl-5-(7-(8-ethyl-7-fluoro-3-hydroxynaphthalen-1-yl)-2-(((2R,7aS)-2-fluorohexahydro-1H-pyrrolizin-7a-yl)methoxy)-5,6,7,8-tetrahydropyrido[3,4-d]pyrimidin-4-yl)-N-methyl-5,6,7,8-tetrahydro-4H-pyrazolo[1,5-a][1,4]diazepine-2-carboxamide]: the IC50 in the test with ASPC1 cells is 10 nM; with MKN1 cells, 16.3 nM; with H727 cells, 19 nM; at KRas G12V, less than 2 nM; on KRas G12D it was less than 2 nM; with PSN1 cells it was 5350 nM. The IC50 at KRas G12R was less than 2 nM. Besides, the inhibition at 0.1 µM in the test on ASPC1 cells (ASPC1, single point at 100 nM, 3 hrs compound incubation) was 96%; in the test on H727 cells (NCI-H727, single point at 100 nM, 3 hrs compound incubation) it was 71%; in the test on H358 cells, 97%; in the test with A549 cells, 95%.
